SMILES strings stand for the structures.

The test system of one series is erythrocytes. As to the kind of experiment: Influence on erythrocyte morphology (damage index) in vitro. To be noted: final conc. 52.86 mg I/mL, value in % of maximal damage index. Type of series: cell-based, human. The protocol: Effects on red blood cells can be monitored in vitro, by exposing human blood to contrast agents, monitoring the appearance of deformed erythrocytes and deriving a “damage index” (D.I.) immediately after exposure, 1 and 2 hours after incubation. Parameters: Morphological changes of blood erxthrocytes;

For the next series, the system named is rabbit VX2-tumor. The series is described as follows: CT tumor perfusion imaging in a tumor bearing rabbit. Type of series: in vivo. The note with it: for HU value, ROI 1 Tumor vessel / HU value, ROI 2 Vessel / HU value, ROI 3 Tumor vital tissue / HU value, ROI 4 Tumor necrotic tissue / HU value, ROI 5 Whole tumor: 300 mgI/kg b.w. From the text:
The goal of the study was to explore the potential of different contrast media to visualize tumor perfusion.

A further series has as its system SPF-mice. The note with it: established marketed contrast media, comparison value; cited from earlier work.
The nature of series [1]: Particle size during milling, XDC. Type of series: physicochemical. From the text:
In one embodiment, XDC (X-ray disc centrifuge sedimentometry) is used to measure particle size distribution. This is one of the most precise methods available for inorganic materials. The technique is based on the fact that particles of a different size (and of the same density) will take different times to travel between two points under the same force (e.g., gravity, centrifugal force): a larger particle will travel faster than a small particle. The derivation of the Stokes' equation for centrifugal sedimentation has been described many times in the literature (Thomas, J. C., and Fairhurst, D. (1991) Surface Phenomena and Fine Particles in Water-based Coatings and Paints. Sharma, M. K., and Micale, F. J. (eds), Plenum Press, New York). The relationship between size and the time taken is a square function. Thus, if a particle of (for example) one micron, takes one second to traverse a given distance, a 0.1 micron particle will take 100 seconds. With a distribution a particle sizes, the particles will effectively fractionate as they move under the proscribed (centrifugal) force. Because time can be measured extremely precisely, the sizes detected can be measured with great precision. The method used to determine the “amount” of material at any given size is X-ray absorbtion. For many inorganic materials, X-rays are absorbed in proportion to mass. The particle size density is therefore “mass-weighted.” Since, for a given particle density, mass is proportional to volume, a “volume-weighted” value (Dv) can be calculated for particle size density. Making the assumption that the particles are spherical, Dv can be transformed into either a surface-weighted value (Ds) or a number-weighted value (Dn). The latter number can be compared with the size determined from electron microscopy. For particle sizes in the colloidal domain (less than 1 micron), the assumption of sphericity is quite reasonable and becomes more so as the particle size gets smaller into the deep sub-micron (<100 nm) and the true nanometer (ca 10 nm) range. The size range that can be accommodated in XDC measurements is dictated only by the width of the particle size density, e.g., how long the measurement will take. The XDC method can be quite time consuming for a very broad particle size density.
(§1) N1177 was milled to the desired particle size distribution. The particle size during milling was monitored in a preliminary study by periodically measuring particle size using XDC and PCS instruments.

Series [2] is described as follows: Particle size during milling, PCS. The class given is physicochemical.
From the text: This is the most widely used technique for particle size density determination and there are two main variations: photon correlation spectroscopy (PCS), and Fraunhofer Diffraction (FD). The choice is dictated by the particle size range under investigation. PCS works for sizes from a few nanometers up to about 1 micron (1000 nm), and FD works from about 1 micron up to millimeters. Both methods are called “ensemble averaging methods.” This means that the two relevant pieces of information needed to describe the particle size density (the actual size and the amount of material at that size) need to be deconvoluted from a single measurement of the amount of light scattered. This involves application of extremely complex theory and equally complex deconvolution algorithms (Kerker, M. (1969) The Scattering of Light and other Electromagnetic Radiation. Academic Press, New York). Thus, both measurement variations are intrinsically low resolution: typically the best that can be achieved is to differentiate between two class sizes (Weiner, B. B. (1984) Modern Methods of Particle Sizing. Barth, H. (ed). Wiley-Interscience). A technical issue arises when the particle size density extends across the one micron point, because then the two different algorithms/theories need to be applied and these cannot be combined together. Attempts to do so result in artifacts in the particle size density such that commercial instruments smooth the data resulting in even less resolution. Being based on light scattering, the fundamental value obtained is an “intensity-weighted” number (Di). Transforming the Di value into a Dv value presents several challenges. The first is that, in addition to the assumption of sphereicity, both PCS and FD weight the intensity differently, and the second is that the transform necessitates application of scattering and efficiency corrections (Weiner, B. B., Fairhurst, D., and Tscharnuter, W. W. (1991) Particle Size Distribution II—Assessment and Characterization. Provder, T. (ed). ACS Symposium Series No. 472. American Chemical Society). Although such corrections can be calculated from Mie theory (Kerker, M. (1969) The Scattering of Light and other Electromagnetic Radiation. Academic Press, New York), they are particle size dependent and require knowledge of the optical properties (complex refractive index) of both the particles and the surrounding medium. The result is that the Dv value (and if further transforms are made to Ds and Dn) can be widely inaccurate. However, for quality control purposes the technique is extremely fast and, for measurements on the same material, extremely reproducible. Laser light scattering may also be referred to as Dynamic Light Scattering (DLS) and generally refers to the PCS technique. Asymmetrical flow field-flow-fractionation (AF4) is a newer method based on light scattering which may be employed. The benefit A4F is that the method is able to separate nanoparticle mixtures prior to DLS analysis.
as §1

Take `COCC(=O)Nc1c(I)c(C(=O)NCC(O)CO)c(I)c(C(=O)N(C)CC(O)CO)c1I` (centres unmarked) [Ultravist]: the “Damage index after incubation” value in the series with erythrocytes (0 h) is 31.2%. Further, in the series with erythrocytes (1 h), the “Damage index after incubation” value was 12.2%. The “Damage index after incubation” value with erythrocytes (2 h) was determined as 24.4%. Further, in the series on rabbit VX2-tumor, the “HU value, ROI 1 Tumor vessel” value is given as 95 HU; the “HU value, ROI 2 Vessel” value came to 294 HU; the “HU value, ROI 3 Tumor vital tissue” value is 30 HU; the “HU value, ROI 4 Tumor necrotic tissue” value came out at 4 HU. Besides, in the series with rabbit VX2-tumor, the “HU value, ROI 5 Whole tumor” value is 37 HU. Also, the “tumor perfusion (intra-/extravasal)” value with rabbit VX2-tumor (dynamic CT 0-80 s) is “intra- and extravasal perfusion”. Besides, the LD50 in the series on SPF-mice is reported as over 12 g Iodine/kg bw.

As to `CCOC(=O)CCCCCOC(=O)c1c(I)c(NC(C)=O)c(I)c(NC(C)=O)c1I` [Compound N1177, 6-ethoxy-6-oxohexy-3,5-bis(acetylamino)-2,4,6-triiodobenzoate], the “Mean Size DN (XDC)” value stood at 84 nm in series [1] (Milled Day 3), 79 nm in series [1] (Milled Day 5), 77 nm in series [1] (Milled Day 7) and 173 nm in series [1] (T = 0 (unmilled)). The “Mean Size DV (XDC)” value is on record as 148 nm in series [1] (Milled Day 3), 143 nm in series [1] (Milled Day 5), 138 nm in series [1] (Milled Day 7) and 424 nm in series [1] (T = 0 (unmilled)). Moreover, the “Mean Effective Diameter (PCS)” value in series [2] (Milled Day 3) was determined as 158 nm; in series [2] (Milled Day 4), 151 nm; in series [2] (Milled Day 5), 149 nm; in series [2] (Milled Day 6) it was 148 nm; in series [2] (Milled Day 7), 147 nm; in series [2] (T = 0 (unmilled)) it was 236 nm. Moreover, the “HU value, ROI 1 Tumor vessel” value in the series on rabbit VX2-tumor is on record as 81 HU. Besides, the “HU value, ROI 2 Vessel” value with rabbit VX2-tumor amounted to 307 HU. Moreover, in the series with rabbit VX2-tumor, the “HU value, ROI 3 Tumor vital tissue” value is listed as 5 HU. Besides, the “HU value, ROI 4 Tumor necrotic tissue” value with rabbit VX2-tumor is on record as 9 HU. The “HU value, ROI 5 Whole tumor” value in the series with rabbit VX2-tumor turned out to be 13 HU.

(Values after patent US20110311457A1, “METHODS FOR IMAGING VASCULAR INFLAMMATION USING IMPROVED NANOPARTICLE CONTRAST AGENTS” (NANOSCAN IMAGING, LLC, priority 2007, published 2011).)
